Measured values reported in ChEMBL document CHEMBL3414533, “Thiophene containing trisubstituted methanes [TRSMs] as identified lead against Mycobacterium tuberculosis” (Eur J Med Chem, 2015).
Converted amounts (≈) assume the structure as drawn. The source made the active and inactive calls. The rule behind the calls is not given here.

Columns and labels:
[1] = system: Mycobacterium tuberculosis; test: Antimycobacterial activity against Mycobacterium tuberculosis H37Rv incubated at 37 degC for 4 weeks; type: functional; conditions: 672 h
[2] = Cytotoxicity against African green monkey Vero C1008 cells assessed as reduction in cell viability after 24 hrs by MTS assay; type: cell-based; conditions: Chlorocebus sabaeus
[3] = Selectivity index, ratio of IC50 for African green monkey Vero C1008 cells to MIC for Mycobacterium tuberculosis H37Rv; type: toxicity, cell-based; conditions: read-out: Selectivity Index
[4] = system: Mycobacterium tuberculosis; test: Antimycobacterial activity against Mycobacterium tuberculosis H37Rv infected in Swiss mouse assessed as mouse survival level at 100 mg/kg, po dosed daily for 28 days measured up to day 40; type: functional
[5] = system: Mycobacterium tuberculosis; test: Antimycobacterial activity against Mycobacterium tuberculosis H37Rv infected in mouse bone-marrow derived macrophages assessed as reduction in intracellular colony forming units at 4 times antimycobacterial MIC measured during 3 hrs infection period; type: functional
[6] = system: Mycobacterium tuberculosis; test: Antimycobacterial activity against Mycobacterium tuberculosis H37Rv infected in human blood monocyte derived macrophages assessed as reduction in intracellular colony forming units at 4 times antimycobacterial MIC measured during 3 hrs infection period; type: functional, organism-based
[7] = system: Mycobacterium tuberculosis; test: Antimycobacterial activity against Mycobacterium tuberculosis H37Rv infected in mouse bone-marrow derived macrophages assessed as reduction in intracellular colony forming units at 4 times antimycobacterial MIC measured during 3 hrs infection period relative to control; type: functional
[8] = system: Mycobacterium tuberculosis; test: Antimycobacterial activity against Mycobacterium tuberculosis H37Rv infected in human blood monocyte derived macrophages assessed as reduction in intracellular colony forming units at 4 times antimycobacterial MIC measured during 3 hrs infection period relative to control; type: functional
[9] = system: Mycobacterium tuberculosis; test: Antimycobacterial activity against Mycobacterium tuberculosis H37Rv infected in Swiss mouse assessed as median survival time at 100 mg/kg, po dosed daily for 28 days measured up to day 40; type: functional
[10] = system: Mycobacterium tuberculosis; test: Antimycobacterial activity against Mycobacterium tuberculosis H37Rv infected in Swiss mouse assessed as reduction in lung bacterial lesions at 100 mg/kg, po dosed daily for 28 days measured up to day 40 by Ziehl-Neelsen staining method; type: functional, organism-based; parameters: dose 100 mg/kg
[11] = system: Mycobacterium tuberculosis; test: Antimycobacterial activity against Mycobacterium tuberculosis H37Rv infected in Swiss mouse assessed as lung bacterial colony forming units at 100 mg/kg, po dosed daily for 28 days measured up to day 40 (reference value: 31 10^7 CFU); type: functional
[12] = system: Mycobacterium tuberculosis; test: Bactericidal activity against Mycobacterium tuberculosis H37Rv assessed as microbial killing at 1 times and 4 times MIC level measured on day 14; type: functional
[13] = system: Mycobacterium tuberculosis; test: Bactericidal activity against Mycobacterium tuberculosis H37Rv infected in Swiss mouse assessed as microbial killing at 100 mg/kg, po dosed daily for 28 days; type: functional; conditions: 672 h
[14] = Elimination half life in rat by HPLC and LC-MS/MS method; type: ADME, organism-based; conditions: in vivo, read-out: beta t1/2 (converted)
[15] = Protein binding in rat plasma by HPLC and LC-MS/MS method; type: ADME, cell-free; conditions: read-out: PPB (converted)
[16] = Mean residence time in rat by HPLC and LC-MS/MS method; type: ADME, organism-based; conditions: in vivo
[17] = Bioavailability in rat by HPLC and LC-MS/MS method; type: ADME, organism-based; conditions: in vivo
[18] = system: Mycobacterium tuberculosis; test: Antimycobacterial activity against Mycobacterium tuberculosis H37Rv infected in Swiss mouse assessed as reduction in lung bacterial colony forming units at 100 mg/kg, po dosed daily for 28 days measured up to day 40; type: functional
[19] = system: Mycobacterium tuberculosis; test: Antimycobacterial activity against drug-sensitive Mycobacterium tuberculosis H37Rv by agar dilution method; type: functional
[20] = system: Mycobacterium tuberculosis; test: Bactericidal activity against Mycobacterium tuberculosis H37Rv assessed as microbial killing by measuring colony forming units at 1 times and 4 times MIC level measured on day 14 (reference value: 1680 CFU); type: functional
[21] = system: Mycobacterium tuberculosis; test: Bactericidal activity against Mycobacterium tuberculosis H37Rv infected in Swiss mouse assessed as microbial killing by measuring colony forming units at 100 mg/kg, po dosed daily for 28 days (reference value: 4800 CFU); type: functional
[22] = system: Mycobacterium tuberculosis; test: Antimycobacterial activity against Mycobacterium tuberculosis H37Rv infected in Swiss mouse assessed as lung bacterial colony forming units at 10 mg/kg, po dosed daily for 28 days measured up to day 40 (reference value: 31 10^7 CFU); type: functional
[23] = system: Mycobacterium tuberculosis; test: Bactericidal activity against Mycobacterium tuberculosis H37Rv infected in Swiss mouse assessed as microbial killing by measuring colony forming units dosed orally daily for 28 days (reference value: 4800 CFU); type: functional
[24] = system: Mycobacterium tuberculosis; test: Antimycobacterial activity against Mycobacterium tuberculosis H37Rv infected in Swiss mouse assessed as lung bacterial colony forming units at 150 mg/kg, po dosed daily for 28 days measured up to day 40 (reference value: 31 10^7 CFU); type: functional

SMILES	MIC [1]	IC50 [2]	selectivity ratio [3]	further results
CN(C)CCOc1ccc(C(c2cccs2)c2ccccc2F)cc1 (stereo not drawn)	17.8 µg/mL (≈ 50.1 µM)			
CCN(CC)CCOc1ccc(C(c2cccc(Cl)c2)c2cccs2)cc1 (stereo not drawn)	1.25 µg/mL (≈ 3.13 µM)	10.1 µg/mL (≈ 25.3 µM)	< 10	
COc1ccccc1C(c1ccc(OCCN2CCCC2)cc1)c1cccs1 (stereo not drawn)	25 µg/mL (≈ 63.5 µM)			
CN(C)CCOc1ccc(C(c2cccc(Cl)c2)c2cccs2)cc1 (stereo not drawn)	4.65 µg/mL (≈ 12.5 µM)	10.8 µg/mL (≈ 29 µM)	< 10	
Fc1ccccc1C(c1ccc(OCCN2CCCC2)cc1)c1cccs1 (stereo not drawn)	19.1 µg/mL (≈ 50.1 µM)			
Clc1ccc(C(c2ccc(OCCN3CCCCC3)cc2)c2cccs2)cc1 (stereo not drawn)	0.78 µg/mL (≈ 1.89 µM)	100 µg/mL (≈ 243 µM)	> 10	Activity [4]: inactive; inhibition (percent reduction in intracellular colony forming units) [5]: >90%
CCN(CC)CCOc1ccc(C(c2ccccc2)c2cccs2)cc1 (stereo not drawn)	12.5 µg/mL (≈ 34.1 µM)			
CCN(CC)CCOc1ccc(C(c2cccs2)c2ccccc2OC)cc1 (stereo not drawn)	25 µg/mL (≈ 63.2 µM)			
CCN(CC)CCOc1ccc(C(c2cccc(F)c2)c2cccs2)cc1 (stereo not drawn)	2.4 µg/mL (≈ 6.26 µM)	5.8 µg/mL (≈ 15.1 µM)	< 10	
COc1ccccc1C(c1ccc(OCCN2CCCCCC2)cc1)c1cccs1 (stereo not drawn)	2.64 µg/mL (≈ 6.26 µM)	12.7 µg/mL (≈ 30.1 µM)	< 10	
c1ccc(C(c2ccc(OCCN3CCCCC3)cc2)c2cccs2)cc1 (stereo not drawn)	6.23 µg/mL (≈ 16.5 µM)			
COc1ccc(C(c2ccc(OCCN(C(C)C)C(C)C)cc2)c2cccs2)cc1 (stereo not drawn)	1.33 µg/mL (≈ 3.14 µM)	100 µg/mL (≈ 236 µM)	> 10	inhibition [6]: Active; inhibition (INH) [7]: 96%; inhibition (INH) [8]: 81%; survival at 100 mg/kg [4]: 42%; MST [9]: 7 days; Activity [10]: Active; Activity [11]: 2.2 ×10⁷ CFU; inhibition (INH) [12]: 100%; inhibition in vivo at 100 mg/kg [13]: 75%; half-life [14]: 9 h; fraction unbound [15]: 0.4; MRT [16]: 18 h; bioavailability [17]: 45%; fold change (FC) [18]: 15; MIC [19]: 3.12 µM (≈ 1.32 µg/mL); CFU [20]: 0; CFU [21]: 1200; inhibition (percent reduction in intracellular colony forming units) [5]: >90%
Clc1cccc(C(c2ccc(OCCN3CCOCC3)cc2)c2cccs2)c1 (stereo not drawn)	5.18 µg/mL (≈ 12.5 µM)	23.4 µg/mL (≈ 56.5 µM)	< 10	
CC[C@@H](CO)NCCN[C@@H](CC)CO [ETHAMBUTOL]				Activity [22]: 1.27 ×10⁷ CFU
Clc1cccc(C(c2ccc(OCCN3CCCCC3)cc2)c2cccs2)c1 (stereo not drawn)	1.29 µg/mL (≈ 3.13 µM)	8.7 µg/mL (≈ 21.1 µM)	< 10	
CC(C)N(CCOc1ccc(C(c2cccs2)c2ccccc2F)cc1)C(C)C (stereo not drawn)	10.3 µg/mL (≈ 25 µM)			
CC(C)N(CCOc1ccc(C(c2ccc(Cl)cc2)c2cccs2)cc1)C(C)C (stereo not drawn)	1.56 µg/mL (≈ 3.64 µM)	100 µg/mL (≈ 234 µM)	> 10	inhibition (INH) [7]: 94%; inhibition (INH) [8]: 88%; Activity [4]: Active; inhibition (percent reduction in intracellular colony forming units) [5]: >90%
CCN(CC)CCOc1ccc(C(c2cccs2)c2ccccc2F)cc1 (stereo not drawn)	4.8 µg/mL (≈ 12.5 µM)			

SMILES	MIC [1]	IC50 [2]	selectivity ratio [3]	further results
CCN(CC)CCOc1ccc(C(c2cccs2)c2ccccc2SC)cc1 (stereo not drawn)	25 µg/mL (≈ 60.7 µM)			
Fc1ccccc1C(c1ccc(OCCN2CCOCC2)cc1)c1cccs1 (stereo not drawn)	19.9 µg/mL (≈ 50.1 µM)			
CC(C)N(CCOc1ccc(C(c2cccc(Cl)c2)c2cccs2)cc1)C(C)C (stereo not drawn)	1.34 µg/mL (≈ 3.13 µM)	22 µg/mL (≈ 51.4 µM)	> 10	
COc1ccccc1C(c1ccc(OCCN(C(C)C)C(C)C)cc1)c1cccs1 (stereo not drawn)	25 µg/mL (≈ 59 µM)			
COc1ccccc1C(c1ccc(OCCN2CCCCC2)cc1)c1cccs1 (stereo not drawn)	1.28 µg/mL (≈ 3.14 µM)	9.2 µg/mL (≈ 22.6 µM)	< 10	
CSc1ccccc1C(c1ccc(OCCN(C)C)cc1)c1cccs1 (stereo not drawn)	12.5 µg/mL (≈ 32.6 µM)			
CSc1ccc(C(c2ccc(OCCN(C(C)C)C(C)C)cc2)c2cccs2)cc1 (stereo not drawn)	1.57 µg/mL (≈ 3.57 µM)	100 µg/mL (≈ 227 µM)	> 10	inhibition [6]: Active; Activity [4]: Active; inhibition (percent reduction in intracellular colony forming units) [5]: >90%
NNC(=O)c1ccncc1 [ISONIAZID]				inhibition [6]: Active; inhibition (INH) [7]: 93%; inhibition (INH) [8]: 84%; inhibition [5]: Active
Fc1ccccc1C(c1ccc(OCCN2CCCCC2)cc1)c1cccs1 (stereo not drawn)	1.24 µg/mL (≈ 3.13 µM)	3.9 µg/mL (≈ 9.86 µM)	< 10	
COc1ccccc1C(c1ccc(OCCN2CCOCC2)cc1)c1cccs1 (stereo not drawn)	10.2 µg/mL (≈ 25 µM)			
COc1ccccc1C(c1ccc(OCCN(C)C)cc1)c1cccs1 (stereo not drawn)	9.19 µg/mL (≈ 25 µM)			
c1ccc(C(c2ccc(OCCN3CCOCC3)cc2)c2cccs2)cc1 (stereo not drawn)	25 µg/mL (≈ 65.8 µM)			
CO[C@H]1/C=C/O[C@@]2(C)Oc3c(C)c(O)c4c(O)c(c(/C=N/N5CCN(C)CC5)c(O)c4c3C2=O)NC(=O)/C(C)=C\C=C\[C@H](C)[C@H](O)[C@@H](C)[C@@H](O)[C@@H](C)[C@H](OC(C)=O)[C@@H]1C [RIFAMPIN]				CFU [23]: 2000; inhibition [5]: Active
c1ccc(C(c2ccc(OCCN3CCCCCC3)cc2)c2cccs2)cc1 (stereo not drawn)	3.1 µg/mL (≈ 7.92 µM)	13 µg/mL (≈ 33.2 µM)	< 10	
Clc1cccc(C(c2ccc(OCCN3CCCC3)cc2)c2cccs2)c1 (stereo not drawn)	2.49 µg/mL (≈ 6.26 µM)	8.6 µg/mL (≈ 21.6 µM)	< 10	
NC(=O)c1cnccn1 [PYRAZINAMIDE]				Activity [24]: 1.9 ×10⁷ CFU; inhibition [5]: Active
CN(C)CCOc1ccc(C(c2cccc(F)c2)c2cccs2)cc1 (stereo not drawn)	17.8 µg/mL (≈ 50.1 µM)			
Fc1cccc(C(c2ccc(OCCN3CCCCC3)cc2)c2cccs2)c1 (stereo not drawn)	19.8 µg/mL (≈ 50.1 µM)			
